{"source": "ChEMBL document CHEMBL4507281", "about": "“Data for DCP probe BI-4394” (2021)", "details_in_all_cases": "Compound concentration 10.0 uM", "key": {"[1]": {"biological_target": "cAMP-dependent protein kinase catalytic subunit alpha (Homo sapiens) (UniProt P17612)"}, "[2]": {"biological_target": "T1, Serine/threonine-protein kinase Chk1 (Homo sapiens) (UniProt O14757)", "T1 sequence (whole entry)": "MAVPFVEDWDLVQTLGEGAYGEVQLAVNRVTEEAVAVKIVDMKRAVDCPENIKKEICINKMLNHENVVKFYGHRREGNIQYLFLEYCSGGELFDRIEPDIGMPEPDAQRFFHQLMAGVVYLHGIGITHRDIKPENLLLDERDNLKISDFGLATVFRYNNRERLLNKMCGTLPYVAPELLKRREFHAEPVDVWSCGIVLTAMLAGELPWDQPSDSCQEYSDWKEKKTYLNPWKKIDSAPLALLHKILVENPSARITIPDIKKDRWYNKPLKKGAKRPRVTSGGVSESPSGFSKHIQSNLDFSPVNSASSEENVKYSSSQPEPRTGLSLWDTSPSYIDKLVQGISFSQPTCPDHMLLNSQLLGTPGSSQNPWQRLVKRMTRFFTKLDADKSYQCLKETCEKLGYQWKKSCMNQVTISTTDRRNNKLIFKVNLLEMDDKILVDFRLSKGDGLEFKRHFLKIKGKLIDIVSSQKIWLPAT"}, "[3]": {"biological_target": "Angiopoietin-1 receptor (Homo sapiens) (UniProt Q02763)", "sequence (Q02763 whole entry)": "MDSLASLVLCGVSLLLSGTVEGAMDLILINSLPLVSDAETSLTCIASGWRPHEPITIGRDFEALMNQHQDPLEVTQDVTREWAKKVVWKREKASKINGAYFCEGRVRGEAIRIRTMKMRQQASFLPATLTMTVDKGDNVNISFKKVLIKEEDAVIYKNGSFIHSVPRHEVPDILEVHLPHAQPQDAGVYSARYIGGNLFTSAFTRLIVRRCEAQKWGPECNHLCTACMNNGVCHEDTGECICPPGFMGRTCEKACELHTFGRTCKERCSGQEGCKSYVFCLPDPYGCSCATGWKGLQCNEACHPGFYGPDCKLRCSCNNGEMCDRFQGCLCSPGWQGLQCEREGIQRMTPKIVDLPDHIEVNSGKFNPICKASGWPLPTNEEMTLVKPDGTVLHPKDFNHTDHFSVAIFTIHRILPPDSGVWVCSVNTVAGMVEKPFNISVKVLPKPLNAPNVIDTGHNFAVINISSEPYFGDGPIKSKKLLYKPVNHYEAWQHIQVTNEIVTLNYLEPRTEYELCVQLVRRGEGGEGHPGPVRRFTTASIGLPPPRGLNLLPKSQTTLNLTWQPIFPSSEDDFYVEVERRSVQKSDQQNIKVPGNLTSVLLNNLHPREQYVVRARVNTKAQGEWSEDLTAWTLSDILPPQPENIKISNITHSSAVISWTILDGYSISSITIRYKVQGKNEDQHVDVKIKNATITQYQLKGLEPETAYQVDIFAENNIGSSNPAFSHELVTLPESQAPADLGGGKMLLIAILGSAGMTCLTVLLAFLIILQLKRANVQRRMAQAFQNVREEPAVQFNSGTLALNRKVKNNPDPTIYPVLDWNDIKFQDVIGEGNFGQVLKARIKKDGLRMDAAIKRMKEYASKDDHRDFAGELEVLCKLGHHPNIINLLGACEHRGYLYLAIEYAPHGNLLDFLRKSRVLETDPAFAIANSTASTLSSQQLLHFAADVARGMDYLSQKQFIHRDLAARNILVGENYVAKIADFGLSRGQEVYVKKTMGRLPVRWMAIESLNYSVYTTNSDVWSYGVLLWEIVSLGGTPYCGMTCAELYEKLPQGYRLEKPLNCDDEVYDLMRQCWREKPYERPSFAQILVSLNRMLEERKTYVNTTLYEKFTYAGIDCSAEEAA"}, "[4]": {"biological_target": "Fibroblast growth factor receptor 1 (Homo sapiens) (UniProt P11362)", "sequence (P11362 22-822 limits assumed)": "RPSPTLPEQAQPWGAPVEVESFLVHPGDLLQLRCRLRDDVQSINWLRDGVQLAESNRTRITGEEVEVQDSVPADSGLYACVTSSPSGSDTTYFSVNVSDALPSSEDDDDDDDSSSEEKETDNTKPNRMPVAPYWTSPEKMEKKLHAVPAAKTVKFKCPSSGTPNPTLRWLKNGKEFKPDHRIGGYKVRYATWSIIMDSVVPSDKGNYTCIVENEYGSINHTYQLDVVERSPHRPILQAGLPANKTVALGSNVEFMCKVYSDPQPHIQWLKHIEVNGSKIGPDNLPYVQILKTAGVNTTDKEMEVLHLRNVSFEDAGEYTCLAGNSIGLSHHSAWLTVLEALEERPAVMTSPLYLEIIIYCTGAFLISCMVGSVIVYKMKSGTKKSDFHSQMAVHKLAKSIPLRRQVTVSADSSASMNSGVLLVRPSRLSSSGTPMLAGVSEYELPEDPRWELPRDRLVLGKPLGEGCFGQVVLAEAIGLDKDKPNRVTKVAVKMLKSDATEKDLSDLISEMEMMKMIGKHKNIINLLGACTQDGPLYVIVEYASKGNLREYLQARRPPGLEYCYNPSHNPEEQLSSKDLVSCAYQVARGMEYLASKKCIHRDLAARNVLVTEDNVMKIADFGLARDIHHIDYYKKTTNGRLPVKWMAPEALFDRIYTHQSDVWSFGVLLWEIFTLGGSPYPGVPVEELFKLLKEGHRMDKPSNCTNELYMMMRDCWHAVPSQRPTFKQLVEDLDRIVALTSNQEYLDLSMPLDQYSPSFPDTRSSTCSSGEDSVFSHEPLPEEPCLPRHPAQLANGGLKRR"}, "[5]": {"biological_target": "T2, Inhibitor of nuclear factor kappa-B kinase subunit beta (Homo sapiens) (UniProt O14920)", "T2 sequence (whole entry)": "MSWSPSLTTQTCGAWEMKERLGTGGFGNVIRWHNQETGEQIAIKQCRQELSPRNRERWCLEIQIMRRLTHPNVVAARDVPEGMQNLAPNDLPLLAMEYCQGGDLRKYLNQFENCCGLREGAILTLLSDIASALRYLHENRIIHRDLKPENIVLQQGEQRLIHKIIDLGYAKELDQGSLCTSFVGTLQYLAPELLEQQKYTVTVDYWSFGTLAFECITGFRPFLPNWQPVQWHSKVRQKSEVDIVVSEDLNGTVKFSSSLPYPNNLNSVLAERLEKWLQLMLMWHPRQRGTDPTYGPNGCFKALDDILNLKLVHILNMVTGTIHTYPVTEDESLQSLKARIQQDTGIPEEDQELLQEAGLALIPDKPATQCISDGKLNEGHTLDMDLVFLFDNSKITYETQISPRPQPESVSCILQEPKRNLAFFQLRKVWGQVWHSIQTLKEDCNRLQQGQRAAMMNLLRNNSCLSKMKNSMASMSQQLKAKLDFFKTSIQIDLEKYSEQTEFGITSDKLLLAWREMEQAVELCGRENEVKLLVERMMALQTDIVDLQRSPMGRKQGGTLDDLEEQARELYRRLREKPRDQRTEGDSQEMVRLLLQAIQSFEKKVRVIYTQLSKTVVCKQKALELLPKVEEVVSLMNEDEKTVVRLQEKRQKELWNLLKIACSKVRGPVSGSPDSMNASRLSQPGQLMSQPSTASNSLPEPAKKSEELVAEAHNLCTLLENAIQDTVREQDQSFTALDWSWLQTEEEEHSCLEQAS"}, "[6]": {"biological_target": "Serine/threonine-protein kinase PAK 4 (Homo sapiens) (UniProt O96013)", "sequence (O96013 whole entry, looked up)": "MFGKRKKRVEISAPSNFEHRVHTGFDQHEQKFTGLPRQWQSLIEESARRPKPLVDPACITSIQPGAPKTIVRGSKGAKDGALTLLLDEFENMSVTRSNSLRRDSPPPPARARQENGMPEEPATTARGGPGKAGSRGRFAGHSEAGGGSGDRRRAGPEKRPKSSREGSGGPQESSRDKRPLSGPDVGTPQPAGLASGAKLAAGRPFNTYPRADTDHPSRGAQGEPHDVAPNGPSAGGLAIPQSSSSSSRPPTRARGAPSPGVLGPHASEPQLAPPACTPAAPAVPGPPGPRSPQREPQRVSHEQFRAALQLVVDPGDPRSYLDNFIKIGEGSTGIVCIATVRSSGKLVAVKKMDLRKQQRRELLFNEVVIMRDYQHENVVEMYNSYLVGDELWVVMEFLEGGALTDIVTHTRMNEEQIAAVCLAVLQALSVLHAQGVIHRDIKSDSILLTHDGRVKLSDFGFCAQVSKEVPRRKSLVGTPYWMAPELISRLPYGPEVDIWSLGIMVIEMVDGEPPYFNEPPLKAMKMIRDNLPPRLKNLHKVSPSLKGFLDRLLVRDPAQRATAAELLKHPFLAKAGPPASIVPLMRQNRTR"}, "[7]": {"biological_target": "T3, Interleukin-1 receptor-associated kinase 4 (Homo sapiens) (UniProt Q9NWZ3)", "T3 sequence (whole entry)": "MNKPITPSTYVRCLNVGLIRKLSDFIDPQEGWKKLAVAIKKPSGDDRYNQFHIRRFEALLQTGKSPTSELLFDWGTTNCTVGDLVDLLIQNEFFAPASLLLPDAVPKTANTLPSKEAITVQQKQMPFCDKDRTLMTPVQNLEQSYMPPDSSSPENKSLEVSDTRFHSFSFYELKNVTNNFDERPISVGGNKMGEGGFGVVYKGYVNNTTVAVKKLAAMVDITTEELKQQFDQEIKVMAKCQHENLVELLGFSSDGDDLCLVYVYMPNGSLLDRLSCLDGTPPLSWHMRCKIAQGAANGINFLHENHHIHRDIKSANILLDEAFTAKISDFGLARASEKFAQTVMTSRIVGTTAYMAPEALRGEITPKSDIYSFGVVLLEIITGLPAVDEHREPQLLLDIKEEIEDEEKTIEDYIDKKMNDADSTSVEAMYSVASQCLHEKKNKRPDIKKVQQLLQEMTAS"}, "[8]": {"biological_target": "Cyclin-dependent kinase 2/cyclin A (Homo sapiens) (UniProt P24941+P20248+P78396)"}, "[9]": {"biological_target": "Serine/threonine-protein kinase PLK1 (Homo sapiens) (UniProt P53350)", "sequence (P53350 whole entry)": "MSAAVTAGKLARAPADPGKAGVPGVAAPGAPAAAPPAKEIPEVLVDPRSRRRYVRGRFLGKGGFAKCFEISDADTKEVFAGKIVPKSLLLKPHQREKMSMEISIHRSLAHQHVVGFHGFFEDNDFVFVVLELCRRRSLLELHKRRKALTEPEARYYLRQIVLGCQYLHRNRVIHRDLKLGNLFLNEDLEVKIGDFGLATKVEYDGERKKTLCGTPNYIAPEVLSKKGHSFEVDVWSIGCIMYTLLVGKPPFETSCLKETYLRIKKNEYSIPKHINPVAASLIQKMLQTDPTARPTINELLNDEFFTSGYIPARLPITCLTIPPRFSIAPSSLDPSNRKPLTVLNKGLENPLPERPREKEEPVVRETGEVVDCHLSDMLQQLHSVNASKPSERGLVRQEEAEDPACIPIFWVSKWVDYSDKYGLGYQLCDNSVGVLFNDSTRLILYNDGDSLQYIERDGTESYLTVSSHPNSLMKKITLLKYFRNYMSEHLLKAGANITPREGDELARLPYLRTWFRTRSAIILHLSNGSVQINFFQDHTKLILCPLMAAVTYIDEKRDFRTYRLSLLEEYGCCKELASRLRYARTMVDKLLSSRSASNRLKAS"}, "[10]": {"biological_target": "Serine/threonine-protein kinase pim-1 (Homo sapiens) (UniProt P11309)", "sequence (P11309 whole entry, looked up)": "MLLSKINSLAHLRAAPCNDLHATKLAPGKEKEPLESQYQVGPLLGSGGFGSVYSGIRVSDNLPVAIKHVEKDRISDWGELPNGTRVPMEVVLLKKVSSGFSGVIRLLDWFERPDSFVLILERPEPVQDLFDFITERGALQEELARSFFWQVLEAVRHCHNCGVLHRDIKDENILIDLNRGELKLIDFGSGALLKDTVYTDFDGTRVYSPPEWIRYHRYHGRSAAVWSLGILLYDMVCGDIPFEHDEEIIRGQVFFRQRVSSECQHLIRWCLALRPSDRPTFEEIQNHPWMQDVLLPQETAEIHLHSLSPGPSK"}, "[11]": {"biological_target": "T4, Protein kinase C epsilon type (Homo sapiens) (UniProt Q02156)", "T4 sequence (whole entry)": "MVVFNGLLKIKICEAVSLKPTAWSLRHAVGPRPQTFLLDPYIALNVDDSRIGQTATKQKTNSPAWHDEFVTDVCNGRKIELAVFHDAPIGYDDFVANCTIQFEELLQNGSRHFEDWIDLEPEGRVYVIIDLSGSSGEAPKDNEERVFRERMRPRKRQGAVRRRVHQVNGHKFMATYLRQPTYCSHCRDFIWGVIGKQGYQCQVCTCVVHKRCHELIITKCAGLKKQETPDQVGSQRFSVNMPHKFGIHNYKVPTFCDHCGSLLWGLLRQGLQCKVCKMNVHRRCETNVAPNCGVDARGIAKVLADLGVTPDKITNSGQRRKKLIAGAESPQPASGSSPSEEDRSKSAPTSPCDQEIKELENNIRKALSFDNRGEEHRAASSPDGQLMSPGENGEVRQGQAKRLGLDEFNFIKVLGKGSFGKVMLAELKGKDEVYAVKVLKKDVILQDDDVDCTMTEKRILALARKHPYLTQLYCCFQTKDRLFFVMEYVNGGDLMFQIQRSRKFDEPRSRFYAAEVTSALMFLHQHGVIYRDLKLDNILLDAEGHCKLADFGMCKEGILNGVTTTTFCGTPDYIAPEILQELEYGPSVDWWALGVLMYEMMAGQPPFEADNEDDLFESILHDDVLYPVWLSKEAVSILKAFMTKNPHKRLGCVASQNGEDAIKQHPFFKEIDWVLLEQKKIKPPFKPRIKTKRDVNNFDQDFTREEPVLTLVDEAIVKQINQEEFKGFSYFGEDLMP"}, "[12]": {"biological_target": "Mitogen-activated protein kinase kinase kinase kinase 4 (Homo sapiens) (UniProt O95819)", "sequence (O95819 2-1239 limits assumed)": "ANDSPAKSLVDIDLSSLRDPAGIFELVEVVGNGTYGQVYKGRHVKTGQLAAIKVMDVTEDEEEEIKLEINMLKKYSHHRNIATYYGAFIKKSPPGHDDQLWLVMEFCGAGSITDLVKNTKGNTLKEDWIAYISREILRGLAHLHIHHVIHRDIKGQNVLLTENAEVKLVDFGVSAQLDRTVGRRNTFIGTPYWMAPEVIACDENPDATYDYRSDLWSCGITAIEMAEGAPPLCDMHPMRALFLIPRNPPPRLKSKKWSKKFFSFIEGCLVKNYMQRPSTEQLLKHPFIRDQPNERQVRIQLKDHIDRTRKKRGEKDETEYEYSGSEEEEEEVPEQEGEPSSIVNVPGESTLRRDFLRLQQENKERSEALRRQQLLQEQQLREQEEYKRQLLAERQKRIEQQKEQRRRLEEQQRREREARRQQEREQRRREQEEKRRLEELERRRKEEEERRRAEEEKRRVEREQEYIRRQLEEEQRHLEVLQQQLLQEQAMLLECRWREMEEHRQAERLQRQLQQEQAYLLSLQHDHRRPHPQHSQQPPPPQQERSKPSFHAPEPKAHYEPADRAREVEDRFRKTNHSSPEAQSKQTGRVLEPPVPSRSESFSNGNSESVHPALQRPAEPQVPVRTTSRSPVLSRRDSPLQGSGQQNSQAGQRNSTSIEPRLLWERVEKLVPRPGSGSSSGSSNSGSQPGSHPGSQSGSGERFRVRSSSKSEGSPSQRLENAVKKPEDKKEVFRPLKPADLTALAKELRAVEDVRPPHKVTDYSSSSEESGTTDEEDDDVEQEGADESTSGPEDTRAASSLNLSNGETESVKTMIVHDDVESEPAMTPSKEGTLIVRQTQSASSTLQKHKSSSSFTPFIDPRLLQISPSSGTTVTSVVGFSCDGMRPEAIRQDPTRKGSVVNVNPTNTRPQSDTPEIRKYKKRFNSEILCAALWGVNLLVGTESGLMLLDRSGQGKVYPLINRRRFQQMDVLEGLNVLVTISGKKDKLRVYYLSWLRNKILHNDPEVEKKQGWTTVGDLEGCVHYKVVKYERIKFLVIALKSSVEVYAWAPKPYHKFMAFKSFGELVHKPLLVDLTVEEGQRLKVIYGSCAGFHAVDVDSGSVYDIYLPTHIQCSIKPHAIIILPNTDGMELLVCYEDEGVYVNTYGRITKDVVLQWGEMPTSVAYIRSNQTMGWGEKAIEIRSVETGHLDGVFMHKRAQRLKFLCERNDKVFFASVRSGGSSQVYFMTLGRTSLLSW"}}}
{"smiles": "CCOC(=O)c1cc2cc(-c3cc(C(=O)NCc4ccc(C(=O)O)cc4)nn3C)ccc2[nH]1", "note": "[BI 4394]", "values": [{"measurement": "residual activity", "setting": "[1]", "value": 10, "unit": "%"}, {"measurement": "residual activity", "setting": "[2]", "value": 94, "unit": "%"}, {"measurement": "residual activity", "setting": "[3]", "value": 85, "unit": "%"}, {"measurement": "residual activity", "setting": "[4]", "value": 94, "unit": "%"}, {"measurement": "residual activity", "setting": "[5]", "value": 48, "unit": "%"}, {"measurement": "residual activity", "setting": "[6]", "value": 75, "unit": "%"}, {"measurement": "residual activity", "setting": "[7]", "value": 121, "unit": "%"}, {"measurement": "residual activity", "setting": "[8]", "value": 93, "unit": "%"}, {"measurement": "residual activity", "setting": "[9]", "value": 73, "unit": "%"}, {"measurement": "residual activity", "setting": "[10]", "value": 14, "unit": "%"}, {"measurement": "residual activity", "setting": "[11]", "value": 115, "unit": "%"}, {"measurement": "residual activity", "setting": "[12]", "value": 32, "unit": "%"}]}
